Entries after “also recorded” stand apart in the source; their conditions may differ.
Columns and labels:
α-SMA mRNA = assay: BDL mice liver quantitative RT-PCR, Alpha-SMA; type: in vivo; conditions: for Alpha-SMA relative mRNA expression level: BDL mice liver, normalized to 36B4, Sham 1.00, mean ± SD
Protocol: (§1) Quantitative RT-PCR: Total ribonucleic acid (RNA) was extracted from liver samples using RNAiso (Takara Bio, Japan) according to the manufacturer's instructions. One μg of RNA was reverse-transcribed using a reaction mixture containing 4.4 mM magnesium chloride (MgCl2) (F. Hoffmann-La Roche, Switzerland), 40 U RNase inhibitor (Toyobo, Japan), 0.5 mM dNTP (Promega, USA), 6.28 μM random hexamer (Promega), 5× first strand buffer (Promega), 10 mM dithiothreitol (Invitrogen, USA) and 200 U MMLV-RT (Invitrogen) in a final volume of 20 μL. The reaction was carried out for 1 hour at 37° C., followed by 5 minutes at 99° C. Real-time PCR was performed using real-time PCR DICE and TB Green™ Premix Ex Taq™ II (Takara Bio). To calculate the relative mRNA expression level, the expression of each gene (α-SMA, TIMP-1, TGF-β and Collagen Type 1) was normalized to that of reference gene 36B4 (gene symbol: Rplp0). Information regarding the PCR-primer sets and the plate layout are described in Tables 8 and 9.

NAFLD patients [1] = assay: Phase IIa study in NAFLD patients: lipid profile and lipidomics; type: in vivo, human; conditions: for Triglycerides (median placebo-corrected % change from baseline): 2 g
Protocol: (§2) The study was planned to include 96 evaluable patients with 32 patients randomized per treatment group.
Clinical Laboratory Safety Tests: Safety tests were performed for hematology, serum biochemistry, coagulation, lipid profile, and urinalysis: Blood and urine samples were taken as per the Study Flow Chart in Table 19 for routine hematology, serum biochemistry, coagulation and urinalysis tests, along with a Lipid Profile. All samples were analyzed in the central laboratory. All subjects were fasted for a minimum of 8 hours prior to blood sampling. If subjects had not fasted for a minimum of 8 hours, the duration of fasting time was recorded, and subjects encouraged to fast appropriately for the next clinical visit. • Hematology: Full blood count to include red cell count, hemoglobin, hematocrit, white cell count, differential white cell count, platelet count and reticulocyte count. • Serum biochemistry: Urea (blood urea nitrogen; BUN), creatinine, uric acid, total bilirubin, Indirect and Direct Bilirubin, sodium, bicarbonate potassium, phosphorus, calcium chloride, alkaline phosphatase (ALP), aspartate aminotransferase (AST), alanine aminotransferase (ALT), ALT/AST ratio, lactate dehydrogenase (LDH), creatine phosphokinase (CPK), albumin, total protein, cholesterol, triglycerides, glucose, C-reactive protein (CRP). • Coagulation: prothrombin time (PT), international normalized ratio (INR) and activated partial […]. • Lipid Profile: LDL, HDL, and VLDL-C. • Urinalysis: pH, protein, glucose, blood, ketones, leukocytes, leukocyte esterase, bilirubin, specific gravity, urobilinogen and nitrate. Reflex micro if blood, protein, leukocyte esterase or nitrate/nitrite are present.
Exploratory analysis: The exploratory analysis included analysis of lipid and metabolic parameters including total cholesterol, triglycerides, very low-density lipoprotein cholesterol (VLDL-C), low density lipoprotein cholesterol (LDL-C), high density lipoprotein cholesterol (HDL-C), non-high-density lipoprotein cholesterol (non-HDL-C), remnant-like particle cholesterol (RLP-C), fasting glucose, insulin, free fatty acids and hemoglobin A1C (HbA1C). Additional exploratory analysis included high throughput lipidomics and proteomics.

NAFLD patients [2] = assay: Phase IIa study in NAFLD patients: hepatic fat by CAP; type: in vivo, human; conditions: 16 weeks
Protocol: as §2
Liver stiffness and CAP: Liver stiffness and CAP were assessed using transient elastography (e.g., FibroScan® 502 Touch model or equivalent). Patients were fasted and scanned at the same time of the day, if possible, for baseline (Week 0) and Visit 10 (Week 16). For this assessment the following conditions were met: patients were lying in dorsal decubitus position with the right arm in maximal abduction behind the head, in a similar position to that used for liver biopsy (LB); the tip of the transducer was placed on the skin between the ribs over the right lobe of the liver (the physician took the measurements with the probe placed in the intercostal space); during the FibroScan® examination the choice of M+ or XL+ probe was determined by the Automatic Probe Selection tool (APS) (If, the APS tool advises to use the “XL+probe” or “switch” continuously between “M+ and XL+ probe”, only the XL+ probe was used); and the operator, assisted by an ultrasonic time motion image, located a portion of the liver which is free of large vascular structures (the depth of measurement was between 35-75 mm for the XL+ probe and 25-65 mm for the M+ probe and the explored volume will be 3 cm^3). […] The final stiffness and CAP values was recorded as median values of valid measurements.

TIMP-1 mRNA = assay: BDL mice liver quantitative RT-PCR, TIMP-1; type: in vivo; conditions: for TIMP-1 relative mRNA expression level: BDL mice liver, normalized to 36B4, Sham 1.00, mean ± SD
Protocol: as §1

NAFLD patients [3] = assay: Phase IIa study in NAFLD patients: OWL liver care test; type: in vivo, human
Excerpt: as §2
OWL Liver Care is a test that was developed based on the plasma lipidomics in biopsy-confirmed NASH patients and provides high predictive values. OWL Liver Care has an area under the curve (AUC) of 0.88 for distinguishing NAFLD and normal liver patients and an AUC of 0.79 for distinguishing NAFLD without steatohepatitis and NASH patients.

[4] = BDL mice, 500 mg/kg PO QD Day 0-13, 500 mg/kg
[5] = BDL mice, DS102 treatment groups as a whole
[6] = 1 g per day, baseline diagnosis NASH (19 at baseline)
[7] = 1 g per day, baseline diagnosis No NAFLD (4 at baseline)
[8] = 1 g per day, baseline diagnosis Steatosis (5 at baseline)
[9] = 2 g per day, baseline diagnosis NASH (12 at baseline)
[10] = 2 g per day, baseline diagnosis No NAFLD (3 at baseline)
[11] = 2 g per day, baseline diagnosis Steatosis (14 at baseline)

15-HEPE [DS102]
Alpha-SMA relative mRNA expression level (α-SMA mRNA; 50 mg/kg PO QD Day 0-13): 3.21 ± 1.67 | Alpha-SMA relative mRNA expression level (α-SMA mRNA; 250 mg/kg PO QD Day 0-13): 2.66 ± 1.33 | Alpha-SMA relative mRNA expression level (α-SMA mRNA; 500 mg/kg PO QD Day 0-13): 1.42 ± 0.75 | α-SMA mRNA expression level compared with the Vehicle group (α-SMA mRNA; [4]): tended to decrease; also recorded: trend approaching significance | α-SMA mRNA expression level, Vehicle group vs the DS102 treatment groups (α-SMA mRNA; [5]): no significant differences | Triglycerides (median placebo-corrected % change from baseline) (NAFLD patients [1]; Week 16, Full Analysis Set): −40.2% | Triglycerides (median placebo-corrected % change from baseline) (NAFLD patients [1]; Week 16, Subgroup: High Triglycerides (>200 mg/dL)): −20.4% | Triglycerides (median placebo-corrected % change from baseline) (NAFLD patients [1]; Week 16, Subgroup: Triglycerides > Upper Limit Normal (>150 mg/dL)): −39.0% | levels of multiple glycerophospholipid groups (NAFLD patients [1]; NAFLD patients, 2 g per day): significantly increased | levels of multiple hepatotoxic diglycerides (NAFLD patients [1]; NAFLD patients, 2 g per day): significantly decreased | triglyceride levels (NAFLD patients [1]; NAFLD patients, Week 16): lowered | lipid profile (total cholesterol, VLDL-C, non-HDL-C, RLP cholesterol, triglycerides) (NAFLD patients [1]; NAFLD patients, Week 16, safety analysis set): significantly improved | hepatic fat content as assessed by CAP (NAFLD patients [2]): reduced | TIMP-1 relative mRNA expression level (TIMP-1 mRNA; 50 mg/kg PO QD Day 0-13): 43.82 ± 26.19 | TIMP-1 relative mRNA expression level (TIMP-1 mRNA; 250 mg/kg PO QD Day 0-13): 30.65 ± 16.80 | TIMP-1 relative mRNA expression level (TIMP-1 mRNA; 500 mg/kg PO QD Day 0-13): 16.09 ± 10.16 | TIMP-1 mRNA expression level compared with the Vehicle group (TIMP-1 mRNA; [4]): tended to decrease; also recorded: trend approaching significance | TIMP-1 mRNA expression level, Vehicle group vs the DS102 treatment groups (TIMP-1 mRNA; [5]): no significant differences | OWL test Change in Diagnosis (Week 16 vs. baseline): Improvement, patients (NAFLD patients [3]; [6]): 5 | OWL test Change in Diagnosis (Week 16 vs. baseline): Stable, patients (NAFLD patients [3]; [6]): 14 | OWL test Change in Diagnosis (Week 16 vs. baseline): Stable, patients (NAFLD patients [3]; [7]): 3 | OWL test Change in Diagnosis (Week 16 vs. baseline): Worsening, patients (NAFLD patients [3]; [7]): 1 | OWL test Change in Diagnosis (Week 16 vs. baseline): Stable, patients (NAFLD patients [3]; [8]): 2 | OWL test Change in Diagnosis (Week 16 vs. baseline): Worsening, patients (NAFLD patients [3]; [8]): 3 | OWL test Change in Diagnosis (Week 16 vs. baseline): Improvement, patients (NAFLD patients [3]; [9]): 5 | OWL test Change in Diagnosis (Week 16 vs. baseline): Stable, patients (NAFLD patients [3]; [9]): 7 | OWL test Change in Diagnosis (Week 16 vs. baseline): Stable, patients (NAFLD patients [3]; [10]): 2*, ** | OWL test Change in Diagnosis (Week 16 vs. baseline): Worsening, patients (NAFLD patients [3]; [10]): 1 | OWL test Change in Diagnosis (Week 16 vs. baseline): Improvement, patients (NAFLD patients [3]; [11]): 1 | OWL test Change in Diagnosis (Week 16 vs. baseline): Stable, patients (NAFLD patients [3]; [11]): 9 | OWL test Change in Diagnosis (Week 16 vs. baseline): Worsening, patients (NAFLD patients [3]; [11]): 4 | OWL liver care diagnosed NASH (NAFLD patients [3]; NAFLD patients, dose dependent, vs placebo at Week 16): significantly improved and normalized

From patent US12076304B2, “Compositions comprising 15-HEPE and methods of treating or preventing hematologic disorders, and/or related diseases” (priority 2020, dated 2024)
